Usually IC50 stands for the midpoint of a concentration-inhibition curve. Low readings indicate greater potency, high ones weaker potency. As usually defined, the Ki is a measure of affinity in units of concentration, obtained from inhibition or displacement. A low value points to higher affinity.

SMILES strings stand for the structures. A value given as a limit tells only on which side of the number the result lay.

17 compounds from ChEMBL document CHEMBL2086282, “2-Substituted 4,5-dihydrothiazole-4-carboxylic acids are novel inhibitors of metallo-β-lactamases” (Bioorg Med Chem Lett, 2012) can be followed below.

For one assay, the target named is Beta-lactamase (Pseudomonas aeruginosa, UniProt Q79MP6).
The target in assay [1] is T1, Beta-lactamase II (Bacillus anthracis, UniProt Q93T40).
T1 sequence (Q93T40 whole entry): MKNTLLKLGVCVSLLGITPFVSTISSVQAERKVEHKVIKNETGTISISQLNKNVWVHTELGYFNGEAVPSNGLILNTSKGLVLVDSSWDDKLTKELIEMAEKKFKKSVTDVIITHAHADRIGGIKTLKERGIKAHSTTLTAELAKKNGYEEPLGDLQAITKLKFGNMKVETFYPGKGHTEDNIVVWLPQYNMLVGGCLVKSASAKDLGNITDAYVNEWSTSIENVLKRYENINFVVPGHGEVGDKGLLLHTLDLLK

For assay [2], the target named is T1, Beta-lactamase II. This is another data set of the same source.

Sequence of Beta-lactamase (Q79MP6 whole entry): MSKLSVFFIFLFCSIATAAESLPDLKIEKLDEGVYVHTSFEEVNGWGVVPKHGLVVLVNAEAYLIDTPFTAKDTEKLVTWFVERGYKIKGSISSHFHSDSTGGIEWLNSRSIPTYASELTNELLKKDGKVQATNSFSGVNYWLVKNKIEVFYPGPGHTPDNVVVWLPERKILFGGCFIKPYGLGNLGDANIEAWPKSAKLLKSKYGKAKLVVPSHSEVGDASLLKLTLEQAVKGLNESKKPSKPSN

Regarding `O=C(Cc1ccccc1)NCC1=N[C@H](C(=O)O)CS1`, the IC50 at Beta-lactamase and on Beta-lactamase II [1] was > 200 µM throughout.

For `O=C(O)[C@@H]1CSC(c2ccc(Br)cc2)=N1`, the IC50 at Beta-lactamase and on Beta-lactamase II [1] was > 200 µM in each case.

`O=C(O)[C@@H]1CSC(c2ccc(Cl)cc2)=N1`: the IC50 against Beta-lactamase and on Beta-lactamase II [1] was > 200 µM each time.

As for `O=C(O)CN(CCN(CC(=O)O)CC(=O)O)CC(=O)O` [EDETIC ACID], the IC50 against Beta-lactamase II [2] is 1.06 mM.

Take `CC(=O)Nc1cccc(C2=N[C@H](C(=O)O)CS2)c1`: the IC50 on Beta-lactamase and at Beta-lactamase II [1] was > 200 µM each time.

Take `O=C(O)[C@@H]1CSC(c2ccccc2O)=N1`: the IC50 against Beta-lactamase and against Beta-lactamase II [1] was > 200 µM throughout.

Regarding `O=C(O)c1csc(Cc2ccccc2)n1`, the IC50 at Beta-lactamase II [1] was > 200 µM.

Regarding `CC(C)(C)OC(=O)NCC1=N[C@H](C(=O)O)CS1`, the IC50 against Beta-lactamase and against Beta-lactamase II [1] was > 200 µM throughout.

For `O=C(O)[C@@H]1CSC(c2ccccc2)N1` (stereo partly drawn), the IC50 against Beta-lactamase and against Beta-lactamase II [1] was > 200 µM in each case.

On to `O=C(O)c1csc(-c2ccccc2)n1`, for which the IC50 on Beta-lactamase and against Beta-lactamase II [1] was > 200 µM in each case.

Turning to `COc1cccc(CC(=O)NCC2=N[C@H](C(=O)O)CS2)c1`, the IC50 at Beta-lactamase and against Beta-lactamase II [1] was > 200 µM throughout.

In the case of `O=C(O)[C@@H]1CSC(Cc2ccccc2)=N1`, the IC50 on Beta-lactamase and against Beta-lactamase II [1] was > 200 µM throughout.

At Beta-lactamase II [1], `C[C@H](CS)C(=O)N1CCC[C@H]1C(=O)O` [CAPTOPRIL] returned an IC50 of 25.8 µM and a Ki of 17.9 µM.

Turning to `CC(C)(C)OC(=O)Nc1cccc(C2=N[C@H](C(=O)O)CS2)c1`, the IC50 is > 200 µM against Beta-lactamase and 74.1 µM on Beta-lactamase II [1].

On to `Nc1cccc(C2=N[C@H](C(=O)O)CS2)c1`, for which the midpoint of inhibition at Beta-lactamase, the IC50, lay at 77 µM. On Beta-lactamase II [1], inhibition was half-maximal at 4.9 µM (IC50) and the Ki was determined as 5.1 µM.

For the compound `O=C(NCC1=N[C@H](C(=O)O)CS1)OCc1ccccc1`, the IC50 at Beta-lactamase and at Beta-lactamase II [1] was > 200 µM throughout.

For the compound `O=C(O)[C@@H]1CSC(Cc2ccccc2)N1` (stereo partly drawn), the IC50 against Beta-lactamase and at Beta-lactamase II [1] was > 200 µM each time.
